Columns and labels:
[1] = molecular target: T1, CASPASE-7 (Homo sapiens, UniProt P55210); assay: HTS ATP-utilizing enzyme assay, off-chip mobility-shift (Caliper HTS 250); type: biochemical; conditions: enzyme named = inhibitory activity/selectivity; test compound 10 μM; active = greater than three-sigma from mean
T1 sequence (P55210 24-198 limits assumed): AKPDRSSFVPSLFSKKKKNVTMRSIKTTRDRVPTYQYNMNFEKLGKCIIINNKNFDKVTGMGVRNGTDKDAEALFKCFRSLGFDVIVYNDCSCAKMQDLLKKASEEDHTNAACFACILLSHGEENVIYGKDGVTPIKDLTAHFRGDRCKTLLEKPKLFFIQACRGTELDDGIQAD
T1 sequence (P55210 207-303 limits assumed): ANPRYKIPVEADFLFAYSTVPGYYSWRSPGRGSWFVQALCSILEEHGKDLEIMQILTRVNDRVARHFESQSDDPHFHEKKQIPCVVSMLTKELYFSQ
How it was run: (§1)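 Single-point screen at 10 µM compound: kinase reactions ran 2.5 h at 20–22 °C and were stopped with termination buffer. Inhibition was read as the substrate-to-phosphopeptide ratio by microfluidic mobility shift, with EDTA and DMSO wells as controls. Hits were called by three-sigma limits.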

[2] = molecular target: CHEK2 (Homo sapiens, UniProt O96017); assay: as above; type: biochemical; conditions: kinase named = inhibitory activity/selectivity; test compound 10 μM; active = greater than three-sigma from mean
How it was run: as §1

Sequence of CHEK2 (O96017 whole entry): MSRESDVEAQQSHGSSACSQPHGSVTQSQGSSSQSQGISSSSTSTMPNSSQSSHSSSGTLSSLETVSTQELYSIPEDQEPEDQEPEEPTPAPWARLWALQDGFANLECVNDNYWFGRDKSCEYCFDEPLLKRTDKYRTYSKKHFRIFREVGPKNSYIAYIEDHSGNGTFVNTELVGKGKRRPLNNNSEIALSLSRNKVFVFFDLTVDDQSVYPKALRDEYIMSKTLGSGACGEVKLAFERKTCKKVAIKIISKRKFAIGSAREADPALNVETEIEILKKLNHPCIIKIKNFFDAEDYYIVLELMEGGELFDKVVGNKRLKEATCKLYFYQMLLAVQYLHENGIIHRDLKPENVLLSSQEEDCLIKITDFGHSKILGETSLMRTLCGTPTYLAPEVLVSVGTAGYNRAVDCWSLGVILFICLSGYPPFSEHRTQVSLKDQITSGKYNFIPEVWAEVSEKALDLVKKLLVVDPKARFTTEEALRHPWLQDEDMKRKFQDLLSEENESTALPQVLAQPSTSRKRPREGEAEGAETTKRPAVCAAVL

Activity [1]: CASPASE-7 | Activity [2]: CHEK2
Structure (SMILES): COc1ccc(OC)c(-c2csc(N(CCCN(C)C)C(=O)c3ccccc3)n2)c1 [N-(4-(2,5-dimethoxyphenyl)thiazol-2-yl)-N-(3-(dimethylamino)propyl)benzamide]
